Assays:
[1] = tested on: NBXF SK-N-AS; test: 2D monolayer CellTiter-Blue viability, neuroblastoma SK-N-AS; type: cell-based; details: 72 h
Experimental: (§1) Seventeen compounds, including mebendazole (Batch no. […] Efficacy of compounds was assessed using CellTiter-Blue® Cell Viability Assay. Anti-tumor activity is expressed as absolute and relative IC50 and IC70 values, calculated by non-linear regression analysis.

[2] = tested on: NBXF KELLY; test: 2D monolayer CellTiter-Blue viability, neuroblastoma KELLY; type: cell-based; details: 72 h
Experimental: as §1

[3] = tested on: SXFS 1301; test: 2D monolayer CellTiter-Blue viability, soft tissue sarcoma SXFS 1301; type: cell-based; details: 72 h
Experimental: as §1

[4] = Stability in human liver microsomes without and with cimetidine or furafylline (Example 4); type: in vitro ADME; details: human, liver microsomes, substrate 1 μM
Experimental: A minus cofactor control incubation was included for each compound tested where 0.1 M phosphate buffer pH 7.4 was added instead of NADPH (minus NADPH). […] The samples were analysed for mebendazole or phenacetin using LC-MS/MS.
A minus cofactor control incubation was included for each compound tested where 0.1 M phosphate buffer pH 7.4 was added instead of cofactor (minus NADPH). […] The samples were analysed for mebendazole or phenacetin using LC-MS/MS.

[5] = tested on: RXF 1781L; test: 2D monolayer CellTiter-Blue viability, renal cancer RXF 1781L; type: cell-based; details: for Test/Control (%) at Drug Concentration: 72 h
Experimental: Mebendazole was tested in vitro across a panel of 12 tumor cell lines of ovarian and renal cancer by using a 2D monolayer assay. […] OVXF 899L and RXF 486L are P-gp expressing, multidrug resistant cell lines.
Anti-tumor activity is expressed as absolute and relative IC50/70 values, calculated by 4-parameter non-linear curve fit.

[6] = pH 7.4, with cimetidine 30 μM, plus 30 μM cimetidine
[7] = pH 7.4, with cimetidine 100 μM, plus 100 μM cimetidine
[8] = pH 7.4, with cimetidine 300 μM, plus 300 μM cimetidine

half-life at 1 μM [4, 6]: 1.28 h
microsomal CLint at 1 μM [4, 6]: 18 µL/min/mg
half-life at 1 μM [4, 7]: 1.3 h
microsomal CLint at 1 μM [4, 7]: 17.8 µL/min/mg
half-life at 1 μM [4, 8]: 1.54 h
microsomal CLint at 1 μM [4, 8]: 15 µL/min/mg
microsomal CLint at 1 μM ([4]; pH 7.4, with furafylline 3 μM, plus 3 μM furafylline): 2.84 µL/min/mg
microsomal CLint at 1 μM ([4]; pH 7.4, with furafylline 10 μM, plus 10 μM furafylline): 0.232 µL/min/mg
microsomal CLint at 1 μM ([4]; pH 7.4, with furafylline 30 μM, plus 30 μM furafylline): 0.336 µL/min/mg
half-life at 1 μM ([4]; pH 7.4, no inhibitor): 1.04 h
microsomal CLint at 1 μM ([4]; pH 7.4, no inhibitor): 22.2 µL/min/mg
Structure (SMILES): COC(=O)Nc1nc2ccc(C(=O)c3ccccc3)cc2[nH]1 [Mebendazole, methyl N-(6-benzoyl-1H-benzimidazol-2-yl)carbamate]
Test/Control (%) at Drug Concentration ([1]; 1.0E+00 μM): 31%
Test/Control (%) at Drug Concentration ([1]; 1.0E+01 μM): 21%
Test/Control (%) at Drug Concentration ([1]; 1.0E+02 μM): 8%
Test/Control (%) at Drug Concentration ([1]; 1.0E−01 μM): 62%
Test/Control (%) at Drug Concentration ([1]; 1.0E−02 μM): 91%
Test/Control (%) at Drug Concentration ([1]; 3.2E+00 μM): 28%
Test/Control (%) at Drug Concentration ([1]; 3.2E+01 μM): 19%
Test/Control (%) at Drug Concentration ([1]; 3.2E−01 μM): 36%
Test/Control (%) at Drug Concentration ([1]; 3.2E−02 μM): 84%
Test/Control (%) at Drug Concentration ([1]; 3.2E−03 μM): 89%
Test/Control (%) at Drug Concentration ([2]; 1.0E+00 μM): 6%
Test/Control (%) at Drug Concentration ([2]; 1.0E+01 μM): −1%
Test/Control (%) at Drug Concentration ([2]; 1.0E+02 μM): −1%
Test/Control (%) at Drug Concentration ([2]; 1.0E−01 μM): 91%
Test/Control (%) at Drug Concentration ([2]; 1.0E−02 μM): 99%
Test/Control (%) at Drug Concentration ([2]; 3.2E+00 μM): −1%
Test/Control (%) at Drug Concentration ([2]; 3.2E+01 μM): −1%
Test/Control (%) at Drug Concentration ([2]; 3.2E−01 μM): 75%
Test/Control (%) at Drug Concentration ([2]; 3.2E−02 μM): 99%
Test/Control (%) at Drug Concentration ([2]; 3.2E−03 μM): 106%
Test/Control (%) at Drug Concentration ([3]; SXFS 1301, 1.0E+00 μM): 35%
Test/Control (%) at Drug Concentration ([3]; SXFS 1301, 1.0E+01 μM): 38%
Test/Control (%) at Drug Concentration ([3]; SXFS 1301, 1.0E+02 μM): 8%
Test/Control (%) at Drug Concentration ([3]; SXFS 1301, 1.0E−01 μM): 84%
Test/Control (%) at Drug Concentration ([3]; SXFS 1301, 1.0E−02 μM): 106%
Test/Control (%) at Drug Concentration ([3]; SXFS 1301, 3.2E+00 μM): 33%
Test/Control (%) at Drug Concentration ([3]; SXFS 1301, 3.2E+01 μM): 36%
Test/Control (%) at Drug Concentration ([3]; SXFS 1301, 3.2E−01 μM): 55%
Test/Control (%) at Drug Concentration ([3]; SXFS 1301, 3.2E−02 μM): 98%
Test/Control (%) at Drug Concentration ([3]; SXFS 1301, 3.2E−03 μM): 101%
Test/Control (%) at Drug Concentration ([5]; RXF 1781, 1.0E+00 μM): 25%
Test/Control (%) at Drug Concentration ([5]; RXF 1781, 1.0E−01 μM): 91%
Test/Control (%) at Drug Concentration ([5]; RXF 1781, 1.0E−02 μM): 92%
Test/Control (%) at Drug Concentration ([5]; RXF 1781, 1.0E−03 μM): 101%
Test/Control (%) at Drug Concentration ([5]; RXF 1781, 1.0E−04 μM): 98%
Test/Control (%) at Drug Concentration ([5]; RXF 1781, 3.2E+00 μM): 32%
Test/Control (%) at Drug Concentration ([5]; RXF 1781, 3.2E−01 μM): 61%
Test/Control (%) at Drug Concentration ([5]; RXF 1781, 3.2E−02 μM): 95%
Test/Control (%) at Drug Concentration ([5]; RXF 1781, 3.2E−03 μM): 95%
Test/Control (%) at Drug Concentration ([5]; RXF 1781, 3.2E−04 μM): 100%
Abs. IC70 ([5]; RXF 1781, 72 h): 978 nM
Rel. IC70 ([5]; RXF 1781, 72 h): 410 nM
Bot. (%) ([5]; RXF 1781, 72 h, curve fit): 28%
